Test results as given in patent US10618916B2, “Heterocyclic compounds as immunomodulators” (Incyte Corporation, priority 2018, dated 2020).

Tests used:
[1] = test system: U2OS/PD-L1 cells and Jurkat-PD-1-SHP cells; assay: Src homology region 2 domain-containing phosphatase (SHP) assay; assay type: cell-based; settings: Homo sapiens, U2OS
Procedure, shortened: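 U2OS/PD-L1 and Jurkat-PD-1-SHP cells (5000 each per well) were co-incubated with compound for 2 h at 37 °C in RPMI1640 with 1% FBS, 0.05% DMSO final. PathHunter chemiluminescence was read after 1 h at room temperature, and IC50 was fitted from percent of DMSO-control activity.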

[2] = biological target: PD-1/PD-L1 protein/protein interaction (recombinant human PD-L1 and human PD-1) (Homo sapiens (Human), UniProt Q9NZQ7); assay: Homogeneous Time-Resolved Fluorescence (HTRF) PD-1/PD-L1 binding assay
Sequence of PD-1/PD-L1 protein/protein interaction (recombinant human PD-L1 and human PD-1) (Q9NZQ7 19-238): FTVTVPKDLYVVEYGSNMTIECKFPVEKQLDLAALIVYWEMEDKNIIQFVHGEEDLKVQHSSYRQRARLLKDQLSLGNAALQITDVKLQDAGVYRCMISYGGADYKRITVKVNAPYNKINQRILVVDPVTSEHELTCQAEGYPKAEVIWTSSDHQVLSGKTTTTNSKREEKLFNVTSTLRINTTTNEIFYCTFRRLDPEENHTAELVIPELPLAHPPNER
Procedure, shortened: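 Human PD-L1 (19-238, C-His; 10 nM final) and PD-1 (25-167, C-Fc; 3 nM final) preincubated 40 min with inhibitor in PBS pH 7.4, 0.05% Tween-20, 0.1% BSA, 1% DMSO, 25 °C. Eu-anti-human IgG (1 nM) and anti-His-APC (20 nM) added for 60 min; 665/620 nm ratio; IC50 from percent-control curves.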

PD-L1 = PD-L1 (Homo sapiens (Human), UniProt Q9NZQ7); assay: PD-L1 whole blood internalization assay; assay type: cell-based; settings: 24 HR, PD-L1 expression on CD14+ cells, human interferon γ
Sequence of PD-L1 (Q9NZQ7 19-290): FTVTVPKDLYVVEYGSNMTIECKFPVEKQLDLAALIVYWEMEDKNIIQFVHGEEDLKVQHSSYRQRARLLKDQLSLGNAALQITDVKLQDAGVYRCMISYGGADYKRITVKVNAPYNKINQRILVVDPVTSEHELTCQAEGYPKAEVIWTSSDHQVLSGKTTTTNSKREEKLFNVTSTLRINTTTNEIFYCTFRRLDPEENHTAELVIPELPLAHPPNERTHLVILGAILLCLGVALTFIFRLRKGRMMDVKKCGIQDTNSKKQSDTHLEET

[3] = test system: PD-L1 aAPC/CHO-K1 cells and Jurkat-PD-1-NFAT effector cells; assay: Nuclear factor of activated T-cells (NFAT) assay; assay type: cell-based; settings: Cricetulus griseus, CHO-K1
Procedure, shortened: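 CHO-K1 cells expressing PD-L1 aAPC were co-cultured with Jurkat-PD-1-NFAT effector cells in RPMI 1640 with 1% FBS and compound (0.4% DMSO; top concentration 2 μM) for 24 h at 37 °C. Bio-Glo luminescence was read, fold induction normalised to DMSO wells, and EC50 fitted from percent of control compound activity.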

| SMILES | IC50 [1] [nM] | IC50 [2] [nM] | IC50 (PD-L1) [nM] | EC50 [3] [nM] |
| --- | --- | --- | --- | --- |
| Cn1c(C(=O)Nc2cccc(-c3cccc(NC(=O)c4nc5c(n4C)CCN(CC(C)(C)C(=O)O)C5)c3Cl)c2Cl)nc2c1CCN(CCC13CCC(C(=O)O)(CC1)C3)C2 [Example 21, 4-(2-(2-((3′-(5-(2-carboxy-2-methylpropyl)-1-methyl-4,5,6,7-tetrahydro-1H-imidazo[4,5-c]pyridine-2-carboxamido)-2,2′-dichloro-[1,1′-biphenyl]-3-yl)carbamoyl)-1-methyl-1,4,6,7-tetrahydro-5H-imidazo[4,5-c]pyridin-5-yl)ethyl)bicyclo[2.2.1]heptane-1-carboxylic acid] | ≤ 10 | ≤ 5 | 10 to 100 | 10 to 100 |
| Cn1c(C(=O)Nc2cccc(-c3cccc(NC(=O)c4nc5c(n4C)CCN(CC46CCC(C(=O)O)(CC4)CC6)C5)c3Cl)c2Cl)nc2c1CCN(CCC13CCC(C(=O)O)(CC1)C3)C2 [Example 23, 4-((2-((3′-(5-(2-(4-carboxybicyclo[2.2.1]heptan-1-yl)ethyl)-1-methyl-4,5,6,7-tetrahydro-1H-imidazo[4,5-c]pyridine-2-carboxamido)-2,2′-dichloro-[1,1′-biphenyl]-3-yl)carbamoyl)-1-methyl-1,4,6,7-tetrahydro-5H-imidazo[4,5-c]pyridin-5-yl)methyl)bicyclo[2.2.2]octane-1-carboxylic acid] | ≤ 10 | ≤ 5 | 100 to 500 | 10 to 100 |
| Cc1c(NC(=O)c2nc3c(n2C)CCNC3)cccc1-c1cccc(NC(=O)c2nc3c(n2C)CCN(CCC24CCC(C(=O)O)(CC2)C4)C3)c1Cl [Example 27, 4-(2-(2-((2-chloro-2′-methyl-3′-(1-methyl-4,5,6,7-tetrahydro-1H-imidazo[4,5-c]pyridine-2-carboxamido)-[1,1′-biphenyl]-3-yl)carbamoyl)-1-methyl-1,4,6,7-tetrahydro-5H-imidazo[4,5-c]pyridin-5-yl)ethyl)bicyclo[2.2.1]heptane-1-carboxylic Acid] | ≤ 10 | ≤ 5 | 10 to 100 | 10 to 100 |
| Cc1c(NC(=O)c2nc3c(n2C)CCN(C2CCN(C(N)=O)CC2)C3)cccc1-c1cccc(NC(=O)c2nc3c(n2C)CCN(CCC24CCC(C(=O)O)(CC2)C4)C3)c1Cl [Example 30, 4-(2-(2-((3′-(5-(1-carbamoylpiperidin-4-yl)-1-methyl-4,5,6,7-tetrahydro-1H-imidazo[4,5-c]pyridine-2-carboxamido)-2-chloro-2′-methyl-[1,1′-biphenyl]-3-yl)carbamoyl)-1-methyl-1,4,6,7-tetrahydro-5H-imidazo[4,5-c]pyridin-5-yl)ethyl)bicyclo[2.2.1]heptane-1-carboxylic acid] | ≤ 10 | ≤ 5 | 10 to 100 | 10 to 100 |
| Cc1c(NC(=O)c2nc3c(n2C)CCN(C[C@@H](C)O)C3)cccc1-c1cccc(NC(=O)c2nc3c(n2C)CCN(CCC24CCC(C(=O)O)(CC2)C4)C3)c1Cl [Example 31, (R)-4-(2-(2-((2-chloro-3′-(5-(2-hydroxypropyl)-1-methyl-4,5,6,7-tetrahydro-1H-imidazo[4,5-c]pyridine-2-carboxamido)-2′-methyl-[1,1′-biphenyl]-3-yl)carbamoyl)-1-methyl-1,4,6,7-tetrahydro-5H-imidazo[4,5-c]pyridin-5-yl)ethyl)bicyclo[2.2.1]heptane-1-carboxylic Acid] | ≤ 10 | ≤ 5 | 10 to 100 | 10 to 100 |
| Cc1c(NC(=O)c2nc3c(n2C)CCN(CCC24CCC(C(=O)O)(CC2)C4)C3)cccc1-c1cccc(NC(=O)c2nc3c(n2C)CCN(CCC24CCC(C(=O)O)(CC2)C4)C3)c1Cl [Example 34, 4,4′-(((((2-chloro-2′-methyl-[1,1′-biphenyl]-3,3′-diyl)bis(azanediyl))bis(carbonyl))bis(1-methyl-1,4,6,7-tetrahydro-5H-imidazo[4,5-c]pyridine-2,5-diyl))bis(ethane-2,1-diyl))bis(bicyclo[2.2.1]heptane-1-carboxylic acid)] | ≤ 10 | ≤ 5 | 10 to 100 | 10 to 100 |
| Cc1c(NC(=O)c2nc3c(n2C)CCN(CC24CCC(C(=O)O)(CC2)C4)C3)cccc1-c1cccc(NC(=O)c2nc3c(n2C)CCN(CCC24CCC(C(=O)O)(CC2)C4)C3)c1Cl [Example 35, 4-((2-((3′-(5-(2-(4-carboxybicyclo[2.2.1]heptan-1-yl)ethyl)-1-methyl-4,5,6,7-tetrahydro-1H-imidazo[4,5-c]pyridine-2-carboxamido)-2′-chloro-2-methyl-[1,1′-biphenyl]-3-yl)carbamoyl)-1-methyl-1,4,6,7-tetrahydro-5H-imidazo[4,5-c]pyridin-5-yl)methyl)bicyclo[2.2.1]heptane-1-carboxylic acid] | 10 to 100 | ≤ 5 | 100 to 500 | 100 to 500 |

Second part, led by results:

| IC50 [1] [nM] | IC50 [2] [nM] | IC50 (PD-L1) [nM] | SMILES | EC50 [3] [nM] |
| --- | --- | --- | --- | --- |
| ≤ 10 | ≤ 5 | 10 to 100 | Cn1c(C(=O)Nc2cccc(-c3cccc(NC(=O)c4nc5c(n4C)CCN(CC46CCC(C(=O)O)(CC4)C6)C5)c3Cl)c2Cl)nc2c1CCN(CCC13CCC(C(=O)O)(CC1)C3)C2 [Example 18, 4-((2-((3′-(5-(2-(4-carboxybicyclo[2.2.1]heptan-1-yl)ethyl)-1-methyl-4,5,6,7-tetrahydro-1H-imidazo[4,5-c]pyridine-2-carboxamido)-2,2′-dichloro-[1,1′-biphenyl]-3-yl)carbamoyl)-1-methyl-1,4,6,7-tetrahydro-5H-imidazo[4,5-c]pyridin-5-yl)methyl)bicyclo[2.2.1]heptane-1-carboxylic acid] | 10 to 100 |
| ≤ 10 | ≤ 5 | 10 to 100 | Cn1c(C(=O)Nc2cccc(-c3cccc(NC(=O)c4nc5c(n4C)CCN(CC(=O)O)C5)c3Cl)c2Cl)nc2c1CCN(CCC13CCC(C(=O)O)(CC1)C3)C2 [Example 19, 4-(2-(2-((3′-(5-(carboxymethyl)-1-methyl-4,5,6,7-tetrahydro-1H-imidazo[4,5-c]pyridine-2-carboxamido)-2,2′-dichloro-[1,1′-biphenyl]-3-yl)carbamoyl)-1-methyl-1,4,6,7-tetrahydro-5H-imidazo[4,5-c]pyridin-5-yl)ethyl)bicyclo[2.2.1]heptane-1-carboxylic acid] | 10 to 100 |
| ≤ 10 | ≤ 5 | 10 to 100 | Cn1c(C(=O)Nc2cccc(-c3cccc(NC(=O)c4nc5c(n4C)CCN(CCC46CCC(C(=O)O)(CC4)C6)C5)c3Cl)c2Cl)nc2c1CCN(CCCC(=O)O)C2 [Example 20, 4-(2-(2-((3′-(5-(3-carboxypropyl)-1-methyl-4,5,6,7-tetrahydro-1H-imidazo[4,5-c]pyridine-2-carboxamido)-2,2′-dichloro-[1,1′-biphenyl]-3-yl)carbamoyl)-1-methyl-1,4,6,7-tetrahydro-5H-imidazo[4,5-c]pyridin-5-yl)ethyl)bicyclo[2.2.1]heptane-1-carboxylic acid] | 10 to 100 |
| ≤ 10 | ≤ 5 | 10 to 100 | Cn1c(C(=O)Nc2cccc(-c3cccc(NC(=O)c4nc5c(n4C)CCN(CC4(C(=O)O)CC4)C5)c3Cl)c2Cl)nc2c1CCN(CCC13CCC(C(=O)O)(CC1)C3)C2 [Example 22, 4-(2-(2-((3′-(5-((1-carboxycyclopropyl)methyl)-1-methyl-4,5,6,7-tetrahydro-1H-imidazo[4,5-c]pyridine-2-carboxamido)-2,2′-dichloro-[1,1′-biphenyl]-3-yl)carbamoyl)-1-methyl-1,4,6,7-tetrahydro-5H-imidazo[4,5-c]pyridin-5-yl)ethyl)bicyclo[2.2.1]heptane-1-carboxylic acid] | 10 to 100 |
| ≤ 10 | ≤ 5 | 10 to 100 | Cn1c(C(=O)Nc2cccc(-c3cccc(NC(=O)c4nc5c(n4C)CCN(CC46CC(C(=O)O)(C4)C6)C5)c3Cl)c2Cl)nc2c1CCN(CCC13CCC(C(=O)O)(CC1)C3)C2 [Example 24, 3-((2-((3′-(5-(2-(4-carboxybicyclo[2.2.1]heptan-1-yl)ethyl)-1-methyl-4,5,6,7-tetrahydro-1H-imidazo[4,5-c]pyridine-2-carboxamido)-2,2′-dichloro-[1,1′-biphenyl]-3-yl)carbamoyl)-1-methyl-1,4,6,7-tetrahydro-5H-imidazo[4,5-c]pyridin-5-yl)methyl)bicyclo[1.1.1]-pentane-1-carboxylic acid] | 10 to 100 |
| 10 to 100 | ≤ 5 | 100 to 500 | Cn1c(C(=O)Nc2cccc(-c3cccc(NC(=O)c4nc5c(n4C)CCN(CCC46CCC(C(=O)O)(CC4)C6)C5)c3Cl)c2Cl)nc2c1CCN(CCc1ccc(C(=O)O)cc1)C2 [Example 25, 4-(2-(2-((3′-(5-(4-carboxyphenethyl)-1-methyl-4,5,6,7-tetrahydro-1H-imidazo[4,5-c]pyridine-2-carboxamido)-2,2′-dichloro-[1,1′-biphenyl]-3-yl)carbamoyl)-1-methyl-1,4,6,7-tetrahydro-5H-imidazo[4,5-c]pyridin-5-yl)ethyl)bicyclo[2.2.1]heptane-1-carboxylic acid] | 10 to 100 |
